Source: patent publication US20240262793A1, “QUINAZOLINE COMPOUND, AND PREPARATION METHOD THEREFOR AND APPLICATION THEREOF” (SHANGHAI PHARMACEUTICALS HOLDING CO., LTD., priority 2021, published 2024)

Key:
Type in all cases: cell-based
TNF-α = assay: Inhibition of TNF-α in PMA-differentiated, LPS-stimulated THP-1 cells (ELISA of cell supernatant); settings: Homo sapiens, THP-1, Table 7, PMA 50 ng/mL, LPS 100 ng/mL
Method: (§1) (1) Cell culture and inoculation: A stock solution of PMA at 1 mg/mL was diluted with serum-free RP1640 medium to prepare a 100 ng/mL PMA solution. Normal cultured THP-1 cells were centrifuged, resuspended in a complete medium (RP1640 medium containing 10% FBS), and counted. The cell density was adjusted to 2×10^6 cells/mL. An equal volume of 100 ng/mL PMA solution was then added, resulting in a cell density of 1×10^6 cells/mL and a final PMA concentration of 50 ng/mL. 100 μL of the cell suspension was seeded into each well of a 96-well cell culture plate with 1×10^5 cells per well. The 96-well cell culture plate was then incubated at 37° C. in a 5% CO2 atmosphere for 24 hours.
(§2) (2) Drug treatment of cells: On the second day, LPS was added to the complete medium to adjust the final concentration to 100 ng/mL, and the compound was prepared using this LPS-containing medium. The compound was added to the appropriate cell wells according to the prepared concentration gradient. The positive control group (LPS+) was a culture medium solution containing a final concentration of 100 ng/mL LPS and 0.1% DMSO without drugs, while the negative control group (LPS-) was a culture medium solution containing 0.1% DMSO without LPS. The volume in each well was 100 μL.
(§3) (3) Test sample collection: The mixture was centrifuged at 1000 rpm for 5 minutes and the cell supernatant and cell precipitate were collected separately. The cell supernatant was used to detect TNF-α and IL-6, and the cell precipitate was collected for IL-1β detection. After collecting the cell supernatant, the remaining liquid in the wells was discarded and 100 μL of cell lysis solution (20 mM Tris 8.0; 2 mM EDTA; 0.5% Triton X-100) was added to each well for complete lysis.
(§4) (4) Sample detection: The enzyme-linked immunosorbent assay (ELISA) was used to detect the content of each cytokine. The specific steps were performed according to the instructions provided in the corresponding kit manuals. The catalog numbers of kits are as follows: • Human TNF-alpha Quantikine ELISA Kit, Catalog # STA00D • Human IL-1 beta/IL-1F2 Quantikine ELISA Kit, Catalog # SLB50 • Human IL-6 Quantikine ELISA Kit, Catalog # S6050.
(§5) (5) Data analysis: The in vitro inhibitory activity of the compounds was calculated using the following formula: […]

IL-1β = assay: Inhibition of IL-1β in PMA-differentiated, LPS-stimulated THP-1 cells (ELISA of cell lysate); settings: Homo sapiens, LPS 100 ng/mL
Method: as §1, §2, §3, §4, §5

IL-6 = assay: Inhibition of IL-6 in PMA-differentiated, LPS-stimulated THP-1 cells (ELISA of cell supernatant); settings: Homo sapiens, LPS 100 ng/mL
Method: as §1, §2, §3, §4, §5

Compound | IC50 (TNF-α) [µM] | IC50 (IL-1β; THP-1, Table 7, PMA 50 ng/mL) [µM] | IC50 (IL-6; THP-1, Table 7, PMA 50 ng/mL) [µM] | IC50 (IL-1β; THP-1, Table 8, PMA 50 ng/mL) [µM] | IC50 (IL-6; THP-1, Table 8, PMA 50 ng/mL) [µM]
CC(CCCN1CCS(=O)(=O)CC1)Nc1ccnc2cc(Cl)ccc12 (centres unmarked) [Example 1, 4-(4-((7-Chloroquinolin-4-yl)amino)pentyl)thiomorpholine-1,1-dioxide] | 31.7 | 23.1 | 0.86 | – | –
CC(CCCN1C(=O)CN(C)C1=O)Nc1ccnc2cc(Cl)ccc12 (centres unmarked) [Example 2, 3-(4-((7-Chloroquinolin-4-yl)amino)pentyl)-1-methylimidazolidine-2,4-dione] | 10.4 | 17.9 | 1.17 | – | –
CC(CCCNCCN1CCCC1)Nc1ccnc2cc(Cl)ccc12 (centres unmarked) [Example 3, N^4-(7-Chloroquinolin-4-yl)-N^1-(2-(pyrrolidin-1-yl)ethyl)pentane-1,4-diamine] | 56.5 | – | 5.53 | – | –
CC(CCCNCC1(C)COC1)Nc1ccnc2cc(Cl)ccc12 (centres unmarked) [Example 4, N^4-(7-Chloroquinolin-4-yl)-N^1-((3-methyloxetan-3-yl)methyl)pentane-1,4-diamine] | 5.54 | 14.4 | 1.28 | – | –
CCOc1ncccc1CNCCCC(C)Nc1ccnc2cc(Cl)ccc12 (centres unmarked) [Example 5, N^4-(7-Chloroquinolin-4-yl)-N^1-((2-ethoxypyridin-3-yl)methyl)pentane-1,4-diamine] | 25.6 | 19.5 | 3.95 | – | –
CC(CCCN1CC2(COC2)C1)Nc1ccnc2cc(Cl)ccc12 (centres unmarked) [Example 6, N-(5-(2-Oxa-6-azaspiro[3.3]heptan-6-yl)pentan-2-yl)-7-chloroquinolin-4-amine] | 32.7 | – | 23.9 | – | –
CC(CCCN1CC2(CCOCC2)C1)Nc1ccnc2cc(Cl)ccc12 (centres unmarked) [Example 7, N-(5-(7-Oxa-2-azaspiro[3.5]nonan-2-yl)pentan-2-yl)-7-chloroquinolin-4-amine] | 12.2 | 30.1 | 2.06 | – | –
CC(CCCN1CC2CCCC2C1)Nc1ccnc2cc(Cl)ccc12 (centres unmarked) [Example 8, 7-Chloro-N-(5-(hexahydrocyclopenta[c]pyrrol-2 (1H)-yl)pentan-2-yl)quinolin-4-amine] | 18.4 | 34.1 | 3.29 | – | –
CCN1CCC2(C1)CN(CCCC(C)Nc1ccnc3cc(Cl)ccc13)C2 (centres unmarked) [Example 9, 7-Chloro-N-(5-(6-ethyl-2,6-diazaspiro[3.4]octan-2-yl)pentan-2-yl)quinolin-4-amine] | 28.3 | 48.3 | 10.5 | – | –
CC(CCCN1CC(F)(F)C1)Nc1ccnc2cc(Cl)ccc12 (centres unmarked) [Example 10, 7-Chloro-N-(5-(3,3-difluoroazetidin-1-yl)pentan-2-yl)quinolin-4-amine] | 8.91 | 15 | 0.38 | – | –
O=C1CCC(=O)N1CCCCNc1ccnc2cc(Cl)ccc12 [Example 11, 1-(4-((7-Chloroquinolin-4-yl)amino)butyl)pyrrolidine-2,5-dione] | 29.9 | 24.3 | 10.6 | – | –
CC(CCCN1C(=O)CNC1=O)Nc1ccnc2cc(F)ccc12 (centres unmarked) [Example 12, 3-(4-((7-Fluoroquinolin-4-yl)amino)pentyl)imidazolidine-2,4-dione] | – | – | 20.5 | – | –
CC(CCCN1C(=O)CNC1=O)Nc1ncnc2cc(Cl)ccc12 (centres unmarked) [Example 13, 3-(4-((7-Chloroquinazolin-4-yl)amino)pentyl)imidazolidine-2,4-dione] | 7.83 | 28.6 | 1.8 | – | –
CC(CCCN1CC2(CCOCC2)C1)Nc1ncnc2cc(F)ccc12 (centres unmarked) [Example 14, N-(5-(7-Oxa-2-azaspiro[3.5]nonan-2-yl)pentan-2-yl)-7-fluoroquinazolin-4-amine] | – | – | 2.98 | – | –
CC(CCCN1C(=O)CCC1=O)Nc1ncnc2cc(Cl)ccc12 (centres unmarked) [Example 15, 1-(4-((7-Chloroquinazolin-4-yl)amino)pentyl)pyrrolidine-2,5-dione] | 17.4 | – | 1.24 | – | –
CC(CCCN(CCO)Cc1ncco1)Nc1ncnc2cc(Cl)ccc12 (centres unmarked) [Example 16, 2-((4-((7-Chloroquinazolin-4-yl)amino)pentyl)(oxazol-2-ylmethyl)amino)ethan-1-ol] | 53.2 | 23.4 | 0.59 | – | –
CC(CCCN(CCO)Cc1cccc(F)c1)Nc1ccnc2cc(Cl)ccc12 (centres unmarked) [Example 17, 2-((4-((7-Chloroquinolin-4-yl)amino)pentyl)(3-fluorobenzyl)amino)ethan-1-ol] | 4.72 | 23.6 | 0.641 | – | –

Compound | IC50 (TNF-α) [µM] | IC50 (IL-1β; THP-1, Table 7, PMA 50 ng/mL) [µM] | IC50 (IL-6; THP-1, Table 7, PMA 50 ng/mL) [µM] | IC50 (IL-1β; THP-1, Table 8, PMA 50 ng/mL) [µM] | IC50 (IL-6; THP-1, Table 8, PMA 50 ng/mL) [µM]
CC(CCCN(CCO)Cc1ccc(F)cc1F)Nc1ccnc2cc(Cl)ccc12 (centres unmarked) [Example 18, 2-((4-((7-Chloroquinolin-4-yl)amino)pentyl)(2,4-difluorobenzyl)amino)ethan-1-ol] | 3.26 | 2.94 | 0.226 | – | –
CC(CCCN(CCO)Cc1ccccn1)Nc1ccnc2cc(Cl)ccc12 (centres unmarked) [Example 19, 2-((4-((7-Chloroquinolin-4-yl)amino)pentyl)(pyridin-2-ylmethyl)amino)ethan-1-ol] | 14.3 | 2.2 | 0.81 | – | –
CC(CCCN(CCO)Cc1cccc(F)c1)Nc1ncnc2cc(Cl)ccc12 (centres unmarked) [Example 20, 2-((4-((7-Chloroquinazolin-4-yl)amino)pentyl)(3-fluorobenzyl)amino)ethan-1-ol] | 6.4 | 5.9 | 0.47 | – | –
CC(CCCN(CCO)Cc1ccc(F)cc1F)Nc1ncnc2cc(Cl)ccc12 (centres unmarked) [Example 21, 2-((4-((7-Chloroquinazolin-4-yl)amino)pentyl)(2,4-difluorobenzyl)amino)ethan-1-ol] | 1.41 | 0.65 | 0.19 | – | –
CC(CCCN(CCO)Cc1cnccn1)Nc1ccnc2cc(Cl)ccc12 (centres unmarked) [Example 32, 2-((4-((7-Chloroquinolin-4-yl)amino)pentyl)(pyrazin-2-ylmethyl)amino)ethan-1-ol] | – | – | 0.63 | – | –
CC(CCCN(CCO)Cc1ncn(C)n1)Nc1ccnc2cc(Cl)ccc12 (centres unmarked) [Example 33, 2-((4-((7-Chloroquinolin-4-yl)amino)pentyl)((1-methyl-1H-1,2,4-triazol-3-yl)methyl)amino)ethan-1-ol] | – | – | 3.85 | – | –
CC(CCCN(CCO)Cc1c(F)cccc1Cl)Nc1ncnc2cc(Cl)ccc12 (centres unmarked) [Example 38] | 7.28 | – | 0.12 | – | –
CC(CCCN(CCO)Cc1ncco1)Nc1ccnc2cc(F)ccc12 (centres unmarked) [Example 41] | – | – | 30.4 | – | –
OCCN(CCCCCNc1ncnc2cc(Cl)ccc12)Cc1ncco1 [Example 46, 2-((5-((7-Chloroquinazolin-4-yl)amino)pentyl)(oxazol-2-ylmethyl)amino)ethan-1-ol] | 56.7 | – | 0.27 | – | –
O=C1CNC(=O)N1CCCCCNc1ncnc2cc(F)ccc12 [Example 50, 3-(5-((7-Fluoroquinazolin-4-yl)amino)pentyl)imidazolidine-2,4-dione] | – | – | – | 122 | 3.99
CC1(C)NC(=O)N(CCCCCNc2ncnc3cc(F)ccc23)C1=O [Example 53, 3-(5-((7-Fluoroquinazolin-4-yl)amino)pentyl)-5,5-dimethylimidazoline-2,4-dione] | – | – | – | 118 | 0.52
O=C1NC2(CCNCC2)C(=O)N1CCCCNc1ncnc2cc(F)ccc12 [Example 60, 3-(4-((7-Fluoroquinazolin-4-yl)amino)butyl)-1,3,8-triazaspiro[4.5]decane-2,4-dione] | – | – | – | – | 34
O=C1NC2(CC2)C(=O)N1CCCCNc1ncnc2cc(F)ccc12 [Example 61, 6-(4-((7-Fluoroquinazolin-4-yl)amino)butyl)-4,6-diazaspiro[2.4]heptane-5,7-dione] | – | – | – | 134 | 5.84
O=C1NC2(CC2)C(=O)N1CCCCNc1ncnc2cc(Cl)ccc12 [Example 65, 6-(4-((7-Chloroquinazolin-4-yl)amino)butyl)-4,6-diazaspiro[2.4]heptane-5,7-dione] | – | – | – | – | 2.02
O=C1NC2(CC2)C(=O)N1CCCCCNc1ncnc2cc(Cl)ccc12 [Example 68, 6-(5-((7-Chloroquinazolin-4-yl)amino)pentyl)-4,6-diazaspiro[2.4]heptane-5,7-dione] | – | – | – | – | 0.42
O=C1NC2(CCC2)C(=O)N1CCCCCNc1ncnc2cc(Cl)ccc12 [Example 70, 7-(5-((7-Chloroquinazolin-4-yl)amino)pentyl)-5,7-diazaspiro[3.4]octane-6,8-dione] | – | – | – | – | 0.46
C[C@H](CCCN1C(=O)CNC1=O)Nc1ncnc2cc(Cl)ccc12 [Example 74, (R)-3-(4-((7-Chloroquinazolin-4-yl)amino)pentyl)imidazolidine-2,4-dione] | – | – | – | – | 12.4
